Experiment [1] in a line: Fluorescence-based cell-based high throughput dose response assay for inhibitors of the interaction of nucleotide-binding oligomerization domain containing 2 (NOD2) and the receptor-interacting serine-threonine kinase 2 (RIPK2). The format is functional. As to conditions: Homo sapiens.
Experiment [2] is described as follows: A549 cell cytotoxicity, dose response, cytotoxicity control, plate reader, cherry-pick, antagonist series (AID 743412). The class given is functional, cell-based.
Experiment [3] in a line: HepG2 cell cytotoxicity, dose response, cytotoxicity control, plate reader, cherry-pick, antagonist series (AID 743416). The format is functional, cell-based.
Experiment [4] can be described thus: MC4R antagonists, dose response, counter-screen for LGR2 antagonist project, cell-based, plate reader, cherry pick (AID 743444).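 Also: transfected HEK 293 cells stimulated with alpha-MSH peptide; potency of inhibitors of the alpha-MSH evoked signal.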 The class given is functional. Background: A counterscreen serves to expose hits that act by an unwanted route or on another target.
For experiment [5], the target named is Paired box protein Pax-8 (Homo sapiens, UniProt Q06710). As to the kind of experiment: inhibitors of PAX8-driven TPO luciferase reporter, dose response, RMG-I cells, cherry-pick (AID 687027).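 Also: luciferase reporter driven by Pax8 target thyroperoxidase promoter measured by SteadyGlo luminescence.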 The class given is functional, cell-based.
Experiment [6] can be described thus: LGR2 antagonists, dose response, cell-based, HEK293, CRE-luciferase reporter, cherry pick, set 2 (AID 743343).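 Also: transfected cells were stimulated with diluted bursicon conditioned medium after compound addition.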 The class given is functional. Background: Reporter assays use an easily measured gene product as a stand-in for the process of interest.
Experiment [7] can be described thus: HEK293 cell cytotoxicity, dose response, cytotoxicity control, plate reader, cherry-picked samples (AID 743446). The class given is functional, cell-based.
The nature of experiment [8]: A2780 ovarian cancer cell cytotoxicity, dose response, cytotoxicity control, plate reader, dry powder samples (AID 743046). The format is functional, cell-based.
The nature of experiment [9]: cytotoxicity in OVCAR8 ovarian cancer cells, dose response, PAX8 project, cell-based, plate reader, dry powder samples (AID 743197). The format is functional. Particulars: OVCAR-8.
A short description of experiment [10]: NIH:OVCAR-3 ovarian cancer cell cytotoxicity, dose response, PAX8 inhibitor project, plate reader, dry powder samples (AID 743044). The format is functional, cell-based.
The target in experiment [11] is Kallikrein-7 (Homo sapiens, UniProt P49862). Kind of experiment: Fluorescence Intensity-based biochemical primary high throughput dose response assay to identify activators of kallikrein-7 (K7) zymogen.
The nature of experiment [12]: P. falciparum late gametocyte killing, dose response, luminescence (AID 1117278).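 Also: gametocytes exposed to compound for 24 hours.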 The class given is functional, cell-based.
Experiment [13] can be described thus: Jurkat T cell cytotoxicity, dose response, cytotoxicity control for P. falciparum gametocyte viability project, luminescence (AID 1117277).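 Also: potency reflects loss of cellular ATP meaning fewer viable cells.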 The format is functional, cell-based.
Experiment [14] can be described thus: cytotoxicity toward HCT116 cells – cell-based, CellTiter-Glo luminescence, IC50, dose response (AID 1117332). The class given is functional. As to conditions: HCT-116. (In general: In ATP-based viability assays light output follows the ATP content of the culture.)
A short description of experiment [15]: RKO cell viability reduction, dose response, CellTiter-Glo luminescence (AID 1117322). The class given is functional.
Experiment [16] is described as follows: SNU-C1 cell viability reduction, dose response, CellTiter-Glo luminescence (AID 1117323). The class given is functional, cell-based.
A short description of experiment [17]: Concentration-dependent survival of SW480 colon cancer line, luminescence detection with CellTiter-Glo, half-maximal inhibitory concentration (AID 1117338). The class given is functional.
Experiment [18] is described as follows: cytotoxicity toward Colo320 cells – cell-based, CellTiter-Glo luminescence, IC50, dose response (AID 1117334). The format is functional. Particulars: COLO 320.
Experiment [19] is described as follows: cytotoxicity toward HT-29 cells – cell-based, CellTiter-Glo luminescence, IC50, dose response (AID 1117330). The format is functional.
Experiment [20] is described as follows: CellTiter-Glo luminescent dose response of DLD-1 viability loss (AID 1117352). The format is functional.

The structures appear in SMILES notation. Active and inactive are the calls of the source.

Broadly, the IC50 is the concentration at which inhibition is half-maximal. As a reminder, the AC50 is the midpoint of the concentration-response curve, whichever way the signal moves. The term EC50 denotes the concentration needed to bring the measured effect to its halfway point.

Chain of Paired box protein Pax-8 (Q06710 whole entry): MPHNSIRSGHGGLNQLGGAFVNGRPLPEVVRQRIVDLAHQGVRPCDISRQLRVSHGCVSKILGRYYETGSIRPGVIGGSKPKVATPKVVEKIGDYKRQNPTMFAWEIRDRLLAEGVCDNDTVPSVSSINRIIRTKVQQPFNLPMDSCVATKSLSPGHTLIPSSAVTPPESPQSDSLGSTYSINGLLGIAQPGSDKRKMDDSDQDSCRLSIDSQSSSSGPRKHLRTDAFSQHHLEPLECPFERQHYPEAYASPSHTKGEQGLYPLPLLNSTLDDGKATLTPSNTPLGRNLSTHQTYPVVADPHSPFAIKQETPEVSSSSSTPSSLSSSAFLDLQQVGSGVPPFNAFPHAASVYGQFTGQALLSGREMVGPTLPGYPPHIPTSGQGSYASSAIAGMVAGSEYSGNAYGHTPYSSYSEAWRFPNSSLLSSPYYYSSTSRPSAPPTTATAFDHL
Chain of Kallikrein-7 (P49862 whole entry): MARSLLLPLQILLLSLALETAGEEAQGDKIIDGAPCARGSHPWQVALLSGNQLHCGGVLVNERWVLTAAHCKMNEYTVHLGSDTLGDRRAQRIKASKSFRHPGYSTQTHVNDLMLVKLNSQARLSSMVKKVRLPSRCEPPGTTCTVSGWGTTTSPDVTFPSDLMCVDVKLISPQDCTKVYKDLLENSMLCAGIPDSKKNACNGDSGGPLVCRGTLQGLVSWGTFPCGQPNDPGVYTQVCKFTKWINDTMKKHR

For the compound `O=C1NC2C(O)C(O)C(O)C(O)C2c2cc3c(c(O)c21)OCO3` (stereo unspecified), the IC50 in experiment [1] was 49.8 µM (inactive). Besides, the AC50 in experiment [2] is 0.358 µM (active); in experiment [3], 0.428 µM (active); in [4], 0.372 µM (active); in [5], < 0.26 µM (active); in experiment [6], 0.362 µM (active); in experiment [7], 0.321 µM (active).

`C[C@H]1CCCCO[C@@H](CN(C)Cc2ccc(C(F)(F)F)cc2)[C@@H](C)CN([C@@H](C)CO)C(=O)c2cc(NC(=O)Cc3ccccc3)ccc2O1`: the concentration at half-maximal activity (AC50) in experiment [8] was 0.963 µM (active); in experiment [9] it was 30.8 µM (active); in experiment [10] it was 11.4 µM (active); in experiment [5], 7.94 µM (active).

For `Clc1ccc(-c2cnc3cccnn23)cc1`, in experiment [11], the EC50 was > 69.5 µM (inactive).

Consider `CS(=O)(=O)Cc1cc(N2CCCC2)nc(-c2ccccc2)n1`, for which the IC50 in experiment [12] was > 109 µM (inactive); in [13] it was > 83.3 µM (inactive).

Turning to `C[C@@H]1CN([C@H](C)CO)C(=O)Cc2cc(NS(=O)(=O)c3ccc(Cl)cc3)ccc2O[C@@H]1CN(C)Cc1ccc(C(F)(F)F)cc1`, the AC50 in [2] is 7.62 µM (active); in experiment [3] it was 10.4 µM (active); in [4], 20.2 µM (active); in experiment [6], 22.7 µM (active); in experiment [7], 15.8 µM (active).

In the case of `CN(CCOc1ccc(CC2SC(=O)NC2=O)cc1)c1ccccn1` (stereo unspecified) [ROSIGLITAZONE], the IC50 in experiment [14] was > 20 µM (inactive); in experiment [15], > 20 µM (inactive); in experiment [16], 8.69 µM (inactive); in experiment [17], > 20 µM (inactive); in [18], > 20 µM (inactive); in experiment [19], > 20 µM (inactive). In experiment [20], the IC50 was > 20 µM (inactive).

Source of the values: ChEMBL document CHEMBL1201862, “PubChem BioAssay data set” (2004).
